# Columns and labels:
# Assay type in all cases: in vivo
# [1] = test system: crabgrass (Digitaria sanguinalis); assay: Test B postemergence; conditions: 13 to 15 days
# Summary of the method: (§1)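 Greenhouse test: chemicals are formulated in a surfactant-containing non-phytotoxic solvent and applied either preemergence to planted seeds or postemergence to plants 2 to 18 cm tall. Response is rated visually versus controls after 13 to 15 days, 0 meaning no effect and 100 complete control.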
# [2] = test system: cocklebur (Xanthium strumarium); assay: Test B postemergence; conditions: 13 to 15 days
# Summary of the method: as §1
# [3] = test system: wheat (Triticum aestivum); assay: Test B postemergence; conditions: 13 to 15 days
# Summary of the method: as §1
# [4] = test system: velvetleaf (Abutilon theophrasti); assay: Test B postemergence; conditions: 13 to 15 days
# Summary of the method: as §1
# corn (Zea mays) [5] = assay: Test B postemergence; conditions: 13 to 15 days
# Summary of the method: as §1
# [6] = test system: Surinam grass (Brachiaria decumbens); assay: Test B postemergence; conditions: 13 to 15 days
# Summary of the method: as §1
# [7] = test system: barnyardgrass (Echinochloa crus-galli); assay: Test B postemergence; conditions: 13 to 15 days
# Summary of the method: as §1
# wild oat (Avena fatua) = assay: Test B postemergence; conditions: 13 to 15 days
# Summary of the method: as §1
# [8] = test system: pigweed (Amaranthus retroflexus); assay: Test B postemergence; conditions: 13 to 15 days
# Summary of the method: as §1
# [9] = test system: giant foxtail (Setaria faberii); assay: Test B postemergence; conditions: 13 to 15 days
# Summary of the method: as §1
# [10] = test system: morning glory (Ipomoea hederacea); assay: Test B postemergence; conditions: 13 to 15 days
# Summary of the method: as §1
# [11] = test system: johnsongrass (Sorghum halepense); assay: Test C preemergence; conditions: for Plant response rating (0 to 100), Johnsongrass: visual evaluation after 12 to 14 days
# Summary of the method: (§2)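 Each compound was dissolved in a non-phytotoxic solvent system containing a surfactant and sprayed either on freshly planted seeds (preemergence) or on young plants, 2 to 18 cm high (postemergence). Ratings after 12 to 14 greenhouse days ran from 0, no effect, to 100, complete control.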
# [12] = test system: velvetleaf (Abutilon theophrasti); assay: Test C preemergence
# Summary of the method: as §2
# [13] = test system: yellow nutsedge (Cyperus esculentus); assay: Test C preemergence
# Summary of the method: as §2
# Sunflower [14] = assay: Test C preemergence; conditions: Rate 125 g/ha; scale 0 to 100, 0 no effect, 100 complete control
# corn (Zea mays) [15] = assay: Test C preemergence; conditions: for Plant response rating (0 to 100), Corn: visual evaluation after 12 to 14 days
# Summary of the method: as §2
# [16] = test system: common ragweed (Ambrosia elatior); assay: Test C preemergence
# Summary of the method: as §2
# [17] = test system: lambsquarters (Chenopodium album); assay: Test C preemergence
# Summary of the method: as §2
# [18] = test system: goosegrass (Eleusine indica); assay: Test C preemergence; conditions: for Plant response rating (0 to 100), Goosegrass: visual evaluation after 12 to 14 days
# Summary of the method: as §2
# Nightshade = assay: Test C preemergence
# [19] = test system: morningglory (Ipomoea hederacea); assay: Test C preemergence
# Summary of the method: as §2
# Sunflower [20] = assay: Test C preemergence; conditions: Rate 500 g/ha, visual evaluation after 12 to 14 days
# [21] = Rate 125 g/ha, scale 0 (no effect) to 100 (complete control)
# [22] = Rate 500 g/ha, scale 0 to 100, 0 is no effect, 100 is complete control
# [23] = Rate 125 g/ha, scale 0 to 100, 0 no effect, 100 complete control
# [24] = preemergence, Rate 62 g/ha, scale 0 to 100
# [25] = preemergence, Rate 500 g/ha, visual evaluation after 12 to 14 days
# [26] = preemergence, Rate 250 g/ha, scale 0 to 100, 0 no effect, 100 complete control
smiles,measurement,setting,value
CSc1cccc(N2CCC(n3ccc(C(C)(C)C)n3)C2=O)c1 (stereo not shown) [Compound 86],"Plant response rating, Crabgrass",[1]; [21],0
same,"Plant response rating, Crabgrass",[1]; [22],0
same,"Plant response rating, Cocklebur",[2]; [21],0
same,"Plant response rating, Cocklebur",[2]; [22],0
same,"Plant response rating, Wheat",[3]; [21],0
same,"Plant response rating, Wheat",[3]; [22],0
same,"Plant response rating, Velvetleaf",[4]; [21],0
same,"Plant response rating, Velvetleaf",[4]; [22],0
same,"Plant response rating, Corn",corn (Zea mays) [5]; [21],0
same,"Plant response rating, Corn",corn (Zea mays) [5]; [22],0
same,"Plant response rating, Surinam grass",[6]; [21],0
same,"Plant response rating, Surinam grass",[6]; [22],0
same,"Plant response rating, Barnyardgrass",[7]; [21],0
same,"Plant response rating, Barnyardgrass",[7]; [22],0
same,"Plant response rating, Wild Oat",wild oat (Avena fatua); [21],0
same,"Plant response rating, Wild Oat",wild oat (Avena fatua); [22],0
same,"Plant response rating, Pigweed",[8]; [21],0
same,"Plant response rating, Pigweed",[8]; [22],0
same,"Plant response rating, Foxtail, Giant",[9]; [21],0
same,"Plant response rating, Foxtail, Giant",[9]; [22],0
same,"Plant response rating, Morningglory",[10]; [21],0
same,"Plant response rating, Morningglory",[10]; [22],0
same,"Plant response rating, Johnsongrass",[11]; [23],20
same,"Plant response rating, Johnsongrass",[11]; [24],20
same,"Plant response rating (0 to 100), Johnsongrass","[11]; preemergence, Rate 250 g/ha",40
same,"Plant response rating (0 to 100), Johnsongrass","[11]; preemergence, Rate 500 g/ha",50
same,"Plant response rating, Velvetleaf",[12]; [23],0
same,"Plant response rating, Velvetleaf",[12]; [24],0
same,"Plant response rating (0 to 100), Velvetleaf",[12]; [25],70
same,"Plant response rating, Velvetleaf",[12]; [26],0
same,"Plant response rating, Nutsedge",[13]; [23],0
same,"Plant response rating, Nutsedge",[13]; [24],0
same,"Plant response rating (0 to 100), Nutsedge",[13]; [25],0
same,"Plant response rating, Nutsedge",[13]; [26],0
same,"Plant response rating, Sunflower",Sunflower [14],20
same,"Plant response rating, Corn",corn (Zea mays) [15]; [23],0
same,"Plant response rating, Corn",corn (Zea mays) [15]; [24],0
same,"Plant response rating (0 to 100), Corn","corn (Zea mays) [15]; preemergence, Rate 250 g/ha",0
same,"Plant response rating (0 to 100), Corn","corn (Zea mays) [15]; preemergence, Rate 500 g/ha",30
same,"Plant response rating, Ragweed, Common",[16]; [23],0
same,"Plant response rating, Ragweed, Common",[16]; [24],0
same,"Plant response rating (0 to 100), Ragweed, Common",[16]; [25],0
same,"Plant response rating, Ragweed, Common",[16]; [26],0
same,"Plant response rating, Lambsquarters",[17]; [23],100
same,"Plant response rating, Lambsquarters",[17]; [24],100
same,"Plant response rating (0 to 100), Lambsquarters",[17]; [25],100
same,"Plant response rating, Lambsquarters",[17]; [26],100
same,"Plant response rating, Goosegrass",[18]; [23],90
same,"Plant response rating, Goosegrass",[18]; [24],100
same,"Plant response rating (0 to 100), Goosegrass","[18]; preemergence, Rate 250 g/ha",100
same,"Plant response rating (0 to 100), Goosegrass","[18]; preemergence, Rate 500 g/ha",100
same,"Plant response rating, Nightshade","Nightshade; Rate 62 g/ha, scale 0 to 100",0
same,"Plant response rating, Nightshade",Nightshade; [23],0
same,"Plant response rating, Nightshade","Nightshade; Rate 250 g/ha, scale 0 to 100, 0 no effect, 100 complete control",0
same,"Plant response rating, Morningglory",[19]; [23],0
same,"Plant response rating, Morningglory",[19]; [24],0
same,"Plant response rating, Morningglory",[19]; [26],0
same,"Plant response rating (0 to 100), Sunflower",Sunflower [20],20

# From patent US7138361B2, “Herbicidal heterocycles” (E. I. du Pont de Nemours and Company, priority 2000, dated 2006)
